Measured values taken from patent US6306828A, “Enantiomerically-enhanced nutritional energy substrates” (Baxter International, Inc., priority 1995, dated 2001).

Tests used:
[1] = tested on: macrophage cultures; conditions: high lactate concentration; Jensen et al. 1986; cited from earlier work
[2] = tested on: cerebral metabolism / brain function during hypoglycemia; conditions: cited from earlier work
[3] = tested on: skeletal muscle; conditions: Hermanson et al. 1972; cited from earlier work
[4] = tested on: isolated rat hepatocytes; assay: Bioavailability/metabolism in isolated rat hepatocytes (production of metabolic intermediates); format: cell-based, male Wistar rats; conditions: 20 mM; for Glucose production / Ketone Bodies production / Pyruvate-Lactate production: 37° C.
Method: (§1) Assay of Bioavailability and Gross Toxicity of Trilactyl Glycerate in Isolate Rat Hepatocytes
(§2) In the following experiment, male Wistar rats (200-250 g) fasted for 24 hours were used. Hepatocytes were isolated according to the method of Berry and Friend (1969) as modified by Groen et al. (1982).
(§3) The isolated hepatocytes were incubated as follows:
[…] […] The supernatant was neutralized with KOH (2 M) and Mops (0.3 M) for subsequent determination of metabolites. 0.5 ml aliquots of the cell suspension were centrifuged at 13,500 g for 15 seconds. The pellet was frozen in liquid nitrogen and stored at -80° C. to subsequently measure pyruvate kinase activity.

[5] = tested on: isolated rat hepatocytes; assay: Gross toxicity, as gauged by hepatocyte viability; format: cell-based, male Wistar rats; conditions: 20 mM
Method: as §1, §2, §3
Hepatocytes (final concentration=10 mg dry cell/ml) were incubated in closed vials at 37° C. in a shaking water bath (60 strokes/min) for 30 minutes in 2.5 ml Krebs-bicarbonate buffer (NaCl: 120 mmol/L, KCl: 4.8 mmol/L, KH2 PO4 : 1.2 mmol/L, MgSO4 : 1.2 mmol/L, NaCO3 H: 24 mmol/L, Ca^2+ :2.4 mmol/L, pH 7.4) containing Bovine Serum Albumin (BSA)-oleate (2%-2 mmol/L), trilactyl glycerate or glucose octanoate (20 mM) The gas atmosphere was O2 /CO2 (19:1). After 30 minutes, 0.35 ml samples of the cell suspension were taken and quenched with perchloric acid (HCIO4, final concentration 5% (w/v)), then centrifuged at 13,500 g for 5 minutes. The supernatant was neutralized with KOH (2 M) and Mops (0.3 M) for subsequent determination of metabolites. 0.5 ml aliquots of the cell suspension were centrifuged at 13,500 g for 15 seconds. The pellet was frozen in liquid nitrogen and stored at -80° C. to subsequently measure pyruvate kinase activity.

Q: With `CC(O)C(=O)O` (stereo not shown) [lactate] as the compound, how does the “secretion of angiogenesis factors” value [1] read?
A: Its value is “encouraged macrophage cultures to secrete angiogenesis factors”.

Q: And the “support of cerebral glucose metabolism and cognitive functions during hypoglycemia” value ([2]; Amiel 1994)?
A: Its value is “able to support cerebral glucose metabolism and maintain cognitive functions during hypoglycemia”.

Q: What about the “protection of brain function during hypoglycemia” value ([2]; Maran et al. 1994) of the same compound?
A: The value was “protective of brain function during hypoglycemia”.

Q: And the “metabolism of blood lactate by skeletal muscle” value [3]?
A: Its value is “metabolized by skeletal muscle in significant quantities”.

Q: With `CCCCCCCC(=O)OC1O[C@H](CO)[C@@H](O)[C@H](O)[C@H]1O` (stereo partly drawn) [glucose octanoate, α,β-D-Glucopyranosyl octanoate] as the compound, how does the “bioavailability and metabolic conversion” value [4] read?
A: The value was “demonstrate the bioavailability of the substrate and its utility as a keptone precursor”.

Q: For `CC(O)C(=O)OCC(COC(=O)C(C)O)OC(=O)C(C)O` (single isomer, unassigned) [trilactyl glycerate], which Glucose production ([4]; 0 Mins.) is on record?
A: Its Glucose production is 0.006.

Q: What about the “Ketone Bodies production” value ([4]; 0 Mins.) of the same compound?
A: The value was 0.010.

Q: And the Pyruvate-Lactate production ([4]; 0 Mins.)?
A: The Pyruvate-Lactate production was 0.012.

Q: What about the “bioavailability and metabolic conversion” value [4] of the same compound?
A: The value was “demonstrate the bioavailability of trilactyl glycerate and its interconversion to glucose”.

Q: And the Glucose production ([4]; 15 Mins.)?
A: The Glucose production was 0.027.

Q: What about the “Ketone Bodies production” value ([4]; 15 Mins.) of the same compound?
A: The value was 0.12.

Q: What about the Pyruvate-Lactate production ([4]; 15 Mins.) of the same compound?
A: The Pyruvate-Lactate production was 0.38.

Q: And the Glucose production ([4]; 30 Mins.)?
A: The Glucose production was 0.062.

Q: And the “Ketone Bodies production” value ([4]; 30 Mins.)?
A: Its value is 0.15.

Q: What about the Pyruvate-Lactate production ([4]; 30 Mins.) of the same compound?
A: The Pyruvate-Lactate production was 0.42.

Q: And the Glucose production ([4]; 45 Mins.)?
A: Its Glucose production is 0.178.

Q: And the “Ketone Bodies production” value ([4]; 45 Mins.)?
A: Its value is 0.11.

Q: And the Pyruvate-Lactate production ([4]; 45 Mins.)?
A: Its Pyruvate-Lactate production is 0.45.

Q: And the Glucose production ([4]; 60 Mins.)?
A: Its Glucose production is 0.189.

Q: What about the “Ketone Bodies production” value ([4]; 60 Mins.) of the same compound?
A: Its value is 0.13.

Q: What about the Pyruvate-Lactate production ([4]; 60 Mins.) of the same compound?
A: The Pyruvate-Lactate production was 0.43.

Q: What about the “gross toxicity, as gauged by hepatocyte viability” value [5] of the same compound?
A: The value was “No evidence of gross toxicity”.
